Data as given in patent EP4810052A2, “HCRHR2 SELECTIVE POLYPEPTIDES” (Gubra A/S, priority 2023, dated 2026).
Marks after values point to notes of the source that are not given here. Starred links: 1 amine or outer side, 2 acyl side, 3 side chain; linkers in the order of their positions; H or OH if unused. Non-standard residues stand in square brackets, D forms with d. Residues, ends and D or L forms follow the SMILES beside them. Groups on a side chain read outwards from the residue. *: point of attachment. C20 diacid = O=C(O)CCCCCCCCCCCCCCCCCCC(=O)*; γGlu = O=C(O)[C@H](CCC(=O)[*:2])N[*:1]; Nle = CCCC[C@H](N)C(=O)O; AEEA = NCCOCCOCC(=O)O; Aib = CC(C)(N)C(=O)O

Experiments:
[1] = Chemical stability of purified peptides (RP-UHPLC main peak purity loss); assay type: physicochemical
Procedure, shortened: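 Peptides at about 1.0 mg/ml in 50 mM phosphate buffer pH 7.5, or pH-adjusted for the pH series, were incubated at 40 °C for 14 and 28 days. Main-peak purity was taken as main-peak area over total area by RP-UHPLC (UV 215 nm, C8, 50 °C). Purity loss was calculated versus T0.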

[2] = Effect on acute food intake in mice; assay type: in vivo; conditions: single subcutaneous dose
Protocol: Male NMRI mice were obtained from JanVier (JanVier Labs, France) at 5 weeks of age. The animals were group-housed 4 mice pr. cage under a 12/12 h dark-light cycle, light off at 1 PM. Room temperature was controlled to 22°C ± 1°C, with 60 % ± 20% humidity. Animals had ad libitum access to regular rodent chow (Altromin 1324, Brogaarden, Denmark) and tap water.
Animals were transferred 5-7 days before the start of the study to a real-time food intake monitoring system, HM-2 system (MBRose, Denmark) to allow acclimatization to experimental conditions. As the animals were uniquely identified with microchips, each individual animal was identified by its microchip upon entry and exit from the food channel. Randomization of the mice for each study group (n=7-8) was based on body weight measured the day before the start of the study. A vehicle-treated group was included in each experiment. Six hours before the start of the dark phase, animals were fasted. One hour before the dark phase, animals were dosed once subcutaneously with test peptide. Food intake was reported hourly for a period of 72 hours. The percentage of food intake reduction was normalized to average food intake from the vehicle group. Statistical significance was evaluated using One-way analysis of variance with Dunnett's multiple comparison test. P < 0.05 was considered statistically significant.
Selected compounds were tested according to the general procedure on acute food intake in mice to determine the effect of a single subcutaneous dose on food intake in mice over 3 days.

Structure (SMILES) | Chemical stability at pH 7.5 after 14 days at 40°C (% degradation) ([1]; pH 7.5, 14 days, 40°C) [%] | Chemical stability at pH 7.5 after 28 days at 40°C (% degradation) ([1]; pH 7.5, 28 days, 40°C) [%] | % FI compared to vehicle, 24 h post-dosing ([2]; 30 nmol/kg) | % FI compared to vehicle, 24 h post-dosing ([2]; 100 nmol/kg) | % FI compared to vehicle, 24 h post-dosing ([2]; 300 nmol/kg) | Chemical stability at pH 7.5 after 14 days at 40°C (% degradation) ([1]; pH 7.5, 40°C, 14 days, first value of cell) [%] | Chemical stability at pH 7.5 after 28 days at 40°C (% degradation) ([1]; pH 7.5, 40°C, 28 days, second value of cell) [%]
CCCC[C@H](NC(=O)[C@@H](NC(=O)[C@H](CCC(=O)O)NC(=O)[C@H](C)NC(=O)[C@H](CC(N)=O)NC(=O)C(C)(C)NC(=O)[C@H](CCCCNC(=O)COCCOCCNC(=O)COCCOCCNC(=O)CC[C@H](NC(=O)CC[C@H](NC(=O)CCCCCCCCCCCCCCCCCCC(=O)O)C(=O)O)C(=O)O)NC(=O)[C@H](C)NC(=O)[C@H](CCC(N)=O)NC(=O)[C@H](CCC(=O)O)NC(=O)[C@H](CCCNC(=N)N)NC(=O)[C@H](C)NC(=O)[C@H](C)NC(=O)[C@H](CCCNC(=N)N)NC(=O)[C@H](C)NC(=O)[C@H](CCCNC(=N)N)NC(=O)[C@H](C)NC(=O)[C@H](CCC(N)=O)NC(=O)[C@H](CO)NC(=O)[C@H](CC(C)C)NC(=O)[C@H](CC(C)C)NC(=O)[C@@H](NC(=O)[C@H](CCC(N)=O)NC(=O)[C@H](CC(C)C)NC(=O)[C@H](CC(C)C)NC(=O)CNC(=O)[C@@H](NC(=O)[C@@H]1CCCN1C(=O)[C@@H](NC(=O)[C@H](CC(=O)O)NC(=O)[C@H](CC(C)C)NC(=O)[C@H](CO)NC(=O)[C@H](CC(C)C)NC(=O)[C@@H](NC(=O)[C@@H](N)[C@@H](C)CC)C(C)C)C(C)C)[C@@H](C)CC)[C@@H](C)CC)[C@@H](C)CC)C(=O)N[C@@H](C)C(=O)N[C@@H](CCC(=O)O)C(=O)N[C@H](C(N)=O)C(C)C [compound 237] (H-IVLSLDVPIGLLQILLSQARARAAREQAK([AEEA-AEEA-γGlu-γGlu-C20 diacid])[Aib]NAEI[Nle]AEV-NH2) | -1.1 | -2.8 | 51.49*** % | 16.66*** % | 13.2*** % | – | –
CC[C@H](C)[C@H](N)C(=O)N[C@H](C(=O)N[C@@H](CC(C)C)C(=O)N[C@@H](CO)C(=O)N[C@@H](CC(C)C)C(=O)N[C@@H](CC(=O)O)C(=O)N[C@H](C(=O)N1CCC[C@H]1C(=O)N[C@H](C(=O)NCC(=O)N[C@@H](CC(C)C)C(=O)N[C@@H](CC(C)C)C(=O)N[C@@H](CCC(N)=O)C(=O)N[C@H](C(=O)N[C@@H](CC(C)C)C(=O)N[C@@H](CC(C)C)C(=O)N[C@@H](CCC(=O)O)C(=O)N[C@@H](CCC(N)=O)C(=O)N[C@@H](C)C(=O)N[C@@H](CCCNC(=N)N)C(=O)N[C@@H](C)C(=O)N[C@@H](CCCNC(=N)N)C(=O)N[C@@H](C)C(=O)N[C@@H](C)C(=O)N[C@@H](CCCNC(=N)N)C(=O)N[C@@H](CCC(=O)O)C(=O)N[C@@H](CCC(N)=O)C(=O)N[C@@H](C)C(=O)N[C@@H](CCCCNC(=O)COCCOCCNC(=O)COCCOCCNC(=O)CC[C@H](NC(=O)CC[C@H](NC(=O)CCCCCCCCCCCCCCCCCCC(=O)O)C(=O)O)C(=O)O)C(=O)NC(C)(C)C(=O)N[C@@H](CC(N)=O)C(=O)N[C@@H](C)C(=O)N[C@@H](CCC(=O)O)C(=O)N[C@H](C(=O)N[C@@H](CC(C)C)C(=O)N[C@@H](C)C(=O)N[C@@H](CCC(=O)O)C(=O)N[C@H](C(N)=O)C(C)C)[C@@H](C)CC)[C@@H](C)CC)[C@@H](C)CC)C(C)C)C(C)C [SEQ ID NO: 19] (H-IVLSLDVPIGLLQILLEQARARAAREQAK([AEEA-AEEA-γGlu-γGlu-C20 diacid])[Aib]NAEILAEV-NH2) | – | – | 56.47*** % | 29.68*** % | 21.66*** % | -1.5 | -2.6
